Results: the supplement of paper PMC10307832

Compound: COc1cc(Nc2ncc3c(n2)-c2ccc(Cl)cc2C(c2c(F)cccc2OC)=NC3)ccc1C(=O)O [Alisertib]
Assay: relative viability (nuclei count vs DMSO), 5 days (fraction); higher = more cells survive
Summary of the method: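 Lung cancer cell lines were seeded into 1536-well plates, kept overnight at 37 °C and pinned with five library-drug doses (not always all listed) spaced by √10. After 5 days, nuclei were Hoechst-stained, imaged at 4× and counted with MetaXpress. Viability is treated-well nuclei over vehicle-well nuclei, taken as a median across plates. Plates needed control CV below 25% and at least one doubling.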

Row | Cell Line | relative viability (0.005 µM) | relative viability (0.01581 µM) | relative viability (0.05 µM) | relative viability (0.1581 µM) | relative viability (0.5 µM)
1 | HOP-62 | 0.918 | 0.867 | 0.505 | 0.237 | 0.17
2 | NCI-H1915 | 0.816 | 0.773 | 0.572 | 0.383 | 0.25
3 | NCI-H3122 | 0.943 | 0.977 | 0.831 | 0.405 | 0.295
4 | NCI-H1651 | 0.859 | 0.892 | 0.571 | 0.298 | 0.209
5 | EBC-1 | 0.875 | 0.806 | 0.373 | 0.183 | 0.162
6 | PC-14 | 0.827 | 0.846 | 0.584 | 0.156 | 0.0817
7 | NCI-H647 | 0.733 | 0.654 | 0.318 | 0.152 | 0.0801
8 | SW 1573 | 0.919 | 0.644 | 0.372 | 0.213 | 0.147
9 | NCI-H441 | 0.839 | 0.662 | 0.201 | 0.179 | 0.188
10 | NCI-H661 | 1.01 | 0.965 | 0.663 | 0.415 | 0.374
11 | SK-MES-1 | 0.913 | 0.947 | 0.561 | 0.326 | 0.16
12 | NCI-H1792 | 0.81 | 0.68 | 0.538 | 0.232 | 0.109
13 | NCI-H1355 | 0.881 | 0.771 | 0.774 | 0.255 | 0.204
14 | UMC-11 | 0.437 | 0.3 | 0.211 | 0.176 | 0.186
15 | A549 | 0.877 | 0.633 | 0.331 | 0.0691 | 0.0535
16 | NCI-H2347 | 1.01 | 0.906 | 0.862 | 0.703 | 0.428
17 | LCLC-97TM1 | 0.931 | 0.791 | 0.496 | 0.137 | 0.121
18 | EMC-BAC-2 | 0.681 | 0.625 | 0.455 | 0.299 | 0.259
19 | NCI-H1975 | 0.85 | 0.828 | 0.565 | 0.317 | 0.207

Row | Cell Line | relative viability (0.005 µM) | relative viability (0.01581 µM) | relative viability (0.05 µM) | relative viability (0.1581 µM) | relative viability (0.5 µM)
20 | BEN | 0.88 | 0.812 | 0.374 | 0.234 | 0.209
21 | NCI-H1703 | 0.871 | 0.721 | 0.57 | 0.241 | 0.143
22 | NCI-H23 | 0.752 | 0.529 | 0.272 | 0.217 | 0.197
23 | NCI-H520 | 0.843 | 0.722 | 0.462 | 0.451 | 0.317
24 | CAL-12T | 0.827 | 0.636 | 0.229 | 0.193 | 0.179
25 | EPLC-272H | 0.834 | 0.758 | 0.646 | 0.127 | 0.139
26 | LCLC-103H | 0.903 | 1.04 | 0.875 | 0.392 | 0.293
27 | NCI-H2405 | 0.952 | 0.967 | 0.833 | 0.41 | 0.282
28 | HCC-15 | 0.862 | 0.723 | 0.513 | 0.138 | 0.138
29 | RERF-LC-KJ | 0.929 | 0.792 | 0.597 | 0.254 | 0.247
30 | NCI-H1944 | 0.923 | 1.08 | 0.789 | 0.39 | 0.273
31 | HARA | 0.897 | 0.94 | 0.656 | 0.24 | 0.185
32 | NCI-H1563 | 0.999 | 0.943 | 0.871 | 0.903 | 0.647
33 | NCI-H2126 | 0.938 | 0.941 | 0.699 | 0.361 | 0.314
34 | LXF-289 | 0.844 | 0.672 | 0.46 | 0.183 | 0.195
35 | NCI-H460 | 0.922 | 0.844 | 0.49 | 0.0862 | 0.0474
36 | NCI-H1395 | 0.877 | 0.862 | 0.535 | 0.452 | 0.394
37 | NCI-H2170 | 0.94 | 0.883 | 0.815 | 0.423 | 0.323
38 | NCI-H2009 | 0.926 | 0.97 | 0.513 | 0.303 | 0.254
